Results as given in patent publication US10328077B2 (CELGENE CORPORATION, priority 2016, dated 2019).

Experiments:
[1] = system: CD11b expression in THP-1 (AML) cells; experiment: LSD-1 CD11b cellular assay (flow cytometry); conditions: Homo sapiens, THP-1, 96 h, read-out: THP-1 IC50
Procedure: To analyze LSD-1 inhibitor efficacy in cells, a CD11b flow cytometry assay was performed. […] LSD-1 test compounds were serially diluted in DMSO. The dilutions were added to each well accordingly to a final concentration of 0.2% DMSO. The cells were incubated at 37 degrees Celsius in 5% CO2 for 4 days. 250 μL of each well was transferred to a well in a 96 well round bottom plate. The plate was centrifuged at 1200 rpm at 4 degrees Celsius in a Beckman Coulter Alegra 6KR centrifuge for 5 minutes. The media was removed leaving the cells at the bottom of the wells. The cells were washed in 100 μL cold HBSS (Hank's Balanced Salt Solution) plus 2% BSA (Bovine Serum Albumin) solution and centrifuged at 1200 rpm at 4 degrees Celsius for 5 minutes. The wash was removed. […] The cells were centrifuged and washed two times in 100 μl HBSS plus 2% BSA. After the final spin the cells were resuspended in 100 μL HBSS plus 2% BSA containing 1 μg/mL DAPI (4′,6-diamidino-2-phenylindole). The cells were then analyzed by flow cytometry in a BD FACSAria machine. Cells were analyzed for CD11b expression. The percent of CD11b expressing cells for each inhibitor concentration was used to determine an IC50 curve for each compound analyzed.

[2] = molecular target: human LSD-1 (Homo sapiens (Human), UniProt O60341); experiment: In vitro enzyme inhibition assay LSD-1 (TR-FRET); assay type: biochemical; conditions: TR-FRET, H3K4me1-biotin labeled peptide
From the text: This assay determines the ability of a test compound to inhibit LSD-1 demethylase activity.
The enzymatic assay of LSD-1 activity is based on Time Resolved-Fluorescence Resonance Energy Transfer (TR-FRET) detection.

| SMILES | IC50 [1] [nM] | IC50 [2] [nM] |
| --- | --- | --- |
| Cn1c(N2CCC(N)CC2)nc(-c2ccc(C#N)c(F)c2)c(-c2ccc3c(c2)CNC3=O)c1=O [Example 42, 4-[2-(4-amino-piperidin-1-yl)-1-methyl-6-oxo-5-(1-oxo-2,3-dihydro-1H-isoindol-5-yl)-1,6-dihydro-pyrimidin-4-yl]-2-fluoro-benzonitrile] | 100 to 1000 | < 100 |
| Cn1c(N2CCC(N)CC2)nc(-c2ccc(C#N)cc2)c(-c2ccc(C(N)=O)c(F)c2)c1=O [Example 41, 4-[2-(4-aminopiperidyl)-6-(4-cyanophenyl)-3-methyl-4-oxo(3-hydropyrimidin-5-yl)]-2-fluorobenzamide] | 100 to 1000 | < 100 |
| COc1ccc(-c2c(-c3ccc(C#N)c(F)c3)nc(N3CCC(C)(N)CC3)n(C)c2=O)cc1F [Example 32, 4-[2-(4-amino-4-methyl-piperidin-1-yl)-5-(3-fluoro-4-methoxy-phenyl)-1-methyl-6-oxo-1,6-dihydro-pyrimidin-4-yl]-2-fluoro-benzonitrile] | < 100 | < 100 |
| CN(C)C1CCN(c2nc(-c3ccc(C#N)c(F)c3)c(-c3ccc4cn(C)nc4c3)c(=O)n2C)CC1 [Example 80, 4-[2-(4-dimethylamino-piperidin-1-yl)-1-methyl-5-(2-methyl-2H-indazol-6-yl)-6-oxo-1,6-dihydro-pyrimidin-4-yl]-2-fluoro-benzonitrile] | < 100 | < 100 |
| Cn1c(N2CCC(N)CC2)nc(-c2ccc(C#N)c(F)c2)c(-c2ccc(N3CCCC3)nc2)c1=O [Example 60, 4-[2-(4-amino-piperidin-1-yl)-1-methyl-6-oxo-5-(6-pyrrolidin-1-yl-pyridin-3-yl)-1,6-dihydro-pyrimidin-4-yl]-2-fluoro-benzonitrile] | < 100 | < 100 |
| COc1ccc(-c2c(-c3ccc(C#N)c(F)c3)nc(NC[C@H]3CCNC3)n(C)c2=O)cc1 [Example 51, 2-fluoro-4-{5-(4-methoxy-phenyl)-1-methyl-6-oxo-2-[(3S)-(pyrrolidin-3-ylmethyl)-amino]-1,6-dihydro-pyrimidin-4-yl}-benzonitrile] | 100 to 1000 | < 100 |
| COc1ccc(-c2c(-c3ccc(C#N)c(F)c3)nc(N3CCC(N(C)C)CC3)n(C)c2=O)cn1 [Example 92, 4-[2-[4-(dimethylamino)piperidin-1-yl]-5-(6-methoxypyridin-3-yl)-1-methyl-6-oxopyrimidin-4-yl]-2-fluorobenzonitrile] | < 100 | < 100 |
| CN(C)c1ccc(-c2c(-c3ccc(C#N)c(F)c3)nc(N3CCCNCC3)n(C)c2=O)cn1 [Example 63, 4-[2-[1,4]diazepan-1-yl-5-(6-dimethylamino-pyridin-3-yl)-1-methyl-6-oxo-1,6-dihydro-pyrimidin-4-yl]-2-fluoro-benzonitrile] | < 100 | < 100 |
| Cn1c(N2CCC(N)CC2)nc(-c2ccc(C#N)c(F)c2)c(-c2ccc3cn[nH]c3c2)c1=O [Example 77, 4-[2-(4-amino-piperidin-1-yl)-5-(1H-indazol-6-yl)-1-methyl-6-oxo-1,6-dihydro-pyrimidin-4-yl]-2-fluoro-benzonitrile] | < 100 | < 100 |
| COc1ccc(-c2c(-c3ccc(C#N)c(F)c3)nc(N3CCC[C@H](N)C3)n(C)c2=O)cc1 [Example 31, 4-[2-((3S)-3-amino-piperidin-1-yl)-5-(4-methoxy-phenyl)-1-methyl-6-oxo-1,6-dihydro-pyrimidin-4-yl]-2-fluoro-benzonitrile] | < 100 | < 100 |
| Cn1c(N2CCC(N)CC2)nc(-c2ccc(C#N)c(F)c2)c(-c2ccc(Cl)cc2)c1=O [Example 106, 4-[2-(4-aminopiperidin-1-yl)-5-(4-chlorophenyl)-1-methyl-6-oxopyrimidin-4-yl]-2-fluorobenzonitrile] | < 100 | < 100 |
| CNCC1CN(c2nc(-c3ccc(C#N)c(F)c3)c(-c3ccc(OC)cc3)c(=O)n2C)C1 [Example 70, 2-fluoro-4-[5-(4-methoxy-phenyl)-1-methyl-2-(3-methylaminomethyl-azetidin-1-yl)-6-oxo-1,6-dihydro-pyrimidin-4-yl]-benzonitrile] | < 100 | < 100 |
| CN(C)c1ccc(-c2c(-c3ccc(C#N)c(F)c3)nc(N3CCC(N)CC3)n(C)c2=O)cc1 [Example 59, 4-[2-(4-amino-piperidin-1-yl)-5-(4-dimethylamino-phenyl)-1-methyl-6-oxo-1,6-dihydro-pyrimidin-4-yl]-2-fluoro-benzonitrile] | < 100 | < 100 |
| Cn1c(N2CCC(N)CC2)nc(-c2ccc(C#N)c(F)c2)c(C#CC2CCCC2)c1=O [Example 14, 4-[2-(4-amino-piperidin-1-yl)-5-cyclopentylethynyl-1-methyl-6-oxo-1,6-dihydro-pyrimidin-4-yl]-2-fluoro-benzonitrile] | < 100 | < 100 |
| Cn1cc2cc(-c3c(-c4ccc(C#N)c(F)c4)nc(N4CCC(N)CC4)n(C)c3=O)ccc2n1 [Example 37, 4-[2-(4-aminopiperidyl)-1-methyl-5-(2-methyl(2H-indazol-5-yl))-6-oxohydropyrimidin-4-yl]-2-fluorobenzenecarbonitrile] | < 100 | < 100 |
| CN(C)c1ncc(-c2c(-c3ccc(C#N)c(F)c3)nc(N3CCC(N)CC3)n(C)c2=O)cn1 [Example 49, 4-[2-(4-amino-piperidin-1-yl)-2′-dimethylamino-1-methyl-6-oxo-1,6-dihydro-[5,5′]bipyrimidinyl-4-yl]-2-fluoro-benzonitrile] | < 100 | < 100 |
| CNC1CCN(c2nc(-c3ccc(C#N)c(F)c3)c(-c3ccc(OC)cc3)c(=O)n2C)CC1 [Example 11, 2-fluoro-4-[5-(4-methoxy-phenyl)-1-methyl-2-(4-methylamino-piperidin-1-yl)-6-oxo-1,6-dihydro-pyrimidin-4-yl]-benzonitrile] | < 100 | < 100 |
| Cn1c(N2CCC(N)CC2)nc(-c2ccc(C#N)c(F)c2)c(-c2ccc(CO)cc2)c1=O [Example 100, 4-[2-(4-aminopiperidin-1-yl)-5-[4-(hydroxymethyl)phenyl]-1-methyl-6-oxopyrimidin-4-yl]-2-fluorobenzonitrile] | < 100 | < 100 |
| CNC1CCN(c2nc(-c3ccc(C#N)c(F)c3)c(-c3ccc4c(cnn4C)c3)c(=O)n2C)CC1 [Example 87, 2-fluoro-4-[1-methyl-2-[4-(methylamino)piperidin-1-yl]-5-(1-methylindazol-5-yl)-6-oxopyrimidin-4-yl] benzonitrile] | < 100 | < 100 |
| CNC1CCN(c2nc(-c3ccc(C#N)c(F)c3)c(-c3ccc(OC)c(F)c3)c(=O)n2C)CC1 [Example 12, 2-fluoro-4-[5-(3-fluoro-4-methoxy-phenyl)-1-methyl-2-(4-methylamino-piperidin-1-yl)-6-oxo-1,6-dihydro-pyrimidin-4-yl]-benzonitrile] | < 100 | < 100 |
| CNC1CCN(c2nc(-c3ccc(C#N)c(F)c3)c(-c3ccc(OC)nc3)c(=O)n2C)CC1 [Example 58, 2-fluoro-4-[5-(6-methoxy-pyridin-3-yl)-1-methyl-2-(4-methylamino-piperidin-1-yl)-6-oxo-1,6-dihydro-pyrimidin-4-yl]-benzonitrile] | < 100 | < 100 |
| CNc1ccc(-c2c(-c3ccc(C#N)c(F)c3)nc(N3CCC(N)CC3)n(C)c2=O)cc1 [Example 90, 4-[2-(4-aminopiperidin-1-yl)-1-methyl-5-[4-(methylamino)phenyl]-6-oxopyrimidin-4-yl]-2-fluorobenzonitrile] | < 100 | < 100 |
| Cn1c(N2CCC(N)CC2)nc(-c2ccc(C#N)c(F)c2)c(-c2ccc(S(C)(=O)=O)cc2)c1=O [Example 105, 4-[2-(4-aminopiperidin-1-yl)-1-methyl-5-(4-methylsulfonylphenyl)-6-oxopyrimidin-4-yl]-2-fluorobenzonitrile] | < 100 | < 100 |
| COc1ccc(-c2c(-c3ccc(C#N)c(F)c3)nc(N3CC(N)C3)n(C)c2=O)cc1 [Example 64, 4-[2-(3-amino-azetidin-1-yl)-5-(4-methoxy-phenyl)-1-methyl-6-oxo-1,6-dihydro-pyrimidin-4-yl]-2-fluoro-benzonitrile] | 100 to 1000 | < 100 |
| CN(C)C1CCN(c2nc(-c3ccc(C#N)c(F)c3)c(-c3ccc4c(cnn4C)c3)c(=O)n2C)CC1 [Example 72, 4-[2-(4-dimethylamino-piperidin-1-yl)-1-methyl-5-(1-methyl-1H-indazol-5-yl)-6-oxo-1,6-dihydro-pyrimidin-4-yl]-2-fluoro-benzonitrile] | < 100 | < 100 |
| COc1ccc(-c2c(-c3ccc(C#N)c(F)c3)nc(N3CCC4(CCNC4)CC3)n(C)c2=O)cc1F [Example 22, 4-[2-(2,8-diaza-spiro[4.5]dec-8-yl)-5-(3-fluoro-4-methoxy-phenyl)-1-methyl-6-oxo-1,6-dihydro-pyrimidin-4-yl]-2-fluorobenzonitrile] | < 100 | < 100 |
| Cn1c(N2CCC(N)CC2)nc(-c2ccc(C#N)c(F)c2)c(-c2ccc3ccn(C)c3c2)c1=O [Example 76, 4-[2-(4-amino-piperidin-1-yl)-1-methyl-5-(1-methyl-1H-indol-6-yl)-6-oxo-1,6-dihydro-pyrimidin-4-yl]-2-fluoro-benzonitrile] | < 100 | < 100 |
| CNC1CCN(c2nc(-c3ccc(C#N)c(F)c3)c(-c3ccc(N(C)C)nc3)c(=O)n2C)CC1 [Example 83, 4-[5-(6-dimethylamino-pyridin-3-yl)-1-methyl-2-(4-methylamino-piperidin-1-yl)-6-oxo-1,6-dihydro-pyrimidin-4-yl]-2-fluoro-benzonitrile] | < 100 | < 100 |
| Cn1c(N2CCC(N)CC2)nc(-c2ccc(C#N)c(F)c2)c(-c2cccc(F)c2)c1=O [Example 102, 4-[2-(4-aminopiperidin-1-yl)-5-(3-fluorophenyl)-1-methyl-6-oxopyrimidin-4-yl]-2-fluorobenzonitrile] | < 100 | < 100 |
